Reference: patent publication US9850283B2, “Macrocyclic inhibitors of the PD-1/PD-L1 and CD80(B7-1)/PD-L1 protein/protein interactions” (BRISTOL-MYERS SQUIBB COMPANY, priority 2013, dated 2017)
Like-named read-outs stand apart in the source and are kept apart here. Positions of bridges follow the written chain, without caps; N, C: chain ends. Non-standard residues stand in square brackets, D forms with d. Residues, ends and D or L forms follow the SMILES beside them. ξ: configuration not given here. Trp(5-Cl) = N[C@@H](Cc1c[nH]c2ccc(Cl)cc12)C(=O)O; Pro(trans-4-F) = O=C(O)[C@@H]1C[C@@H](F)CN1; NMeW = CN[C@@H](Cc1c[nH]c2ccccc12)C(=O)O; Bta = N[C@@H](Cc1csc2ccccc12)C(=O)O; Hyp = O=C(O)[C@@H]1C[C@@H](O)CN1; NMeF = CN[C@@H](Cc1ccccc1)C(=O)O; NMeNle = CCCC[C@H](NC)C(=O)O; NMeS = CN[C@@H](CO)C(=O)O; NMeA = CN[C@@H](C)C(=O)O; Dab = NCC[C@H](N)C(=O)O; ξC = NC(CS)C(=O)O; Sar = CNCC(=O)O

Experiments:
[1] = biological target: T1, Human PD-L1/PD-1 (Homo sapiens, UniProt Q9NZQ7); assay: HTRF PD-1-Ig/PD-L1-His binding assay (human PD-L1); conditions: cluster symbol; read-out: HTRF IC50 cluster
T1 construct: made in house; host or cells: HEK293T
T1 sequence (Q9NZQ7 with tags, fused parts or gaps): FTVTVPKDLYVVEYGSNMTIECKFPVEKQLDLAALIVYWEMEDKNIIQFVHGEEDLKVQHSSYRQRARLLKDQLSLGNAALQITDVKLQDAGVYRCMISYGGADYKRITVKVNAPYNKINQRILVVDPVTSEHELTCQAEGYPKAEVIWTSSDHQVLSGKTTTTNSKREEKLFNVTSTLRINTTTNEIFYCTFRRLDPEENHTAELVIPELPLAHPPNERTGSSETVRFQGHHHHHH
Outline: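 Soluble Fc-fused PD-1 and His-tagged PD-L1 (truncated before the transmembrane region) were combined in dPBS with 0.1% (w/v) BSA and 0.05% (v/v) Tween-20. Binding was read by HTRF using europium cryptate anti-Ig antibody (1 nM final) and APC anti-His antibody (20 nM final).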

[2] = biological target: T2, LK35.2-hPD-L1 cells / PE-labeled PD-1-Ig (Homo sapiens, UniProt Q9NZQ7); assay: LK35.2-hPD-L1 cell binding high-content screening assay; type: cell-based; conditions: cluster symbol, read-out: CBA IC50 cluster
T2 construct: expressed in transfected cells; host or cells: LK35.2 mouse B cell line
T2 sequence (Q9NZQ7 19-290): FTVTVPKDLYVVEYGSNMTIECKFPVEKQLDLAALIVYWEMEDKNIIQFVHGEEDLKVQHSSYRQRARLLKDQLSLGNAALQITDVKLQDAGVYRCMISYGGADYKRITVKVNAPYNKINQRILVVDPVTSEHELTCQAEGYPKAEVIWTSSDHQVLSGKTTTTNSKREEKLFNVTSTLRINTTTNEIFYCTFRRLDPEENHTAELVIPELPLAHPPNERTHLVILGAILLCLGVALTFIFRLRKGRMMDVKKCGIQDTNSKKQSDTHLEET
Outline: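 Mouse LK35.2 B cells stably overexpressing human PD-L1 were cultured overnight in RPMI with 10% FCS, then given compound and PE-labeled human PD-1-Ig (1 nM final) for 1 h at 37 °C. After three dPBS washes, bound fluorescence was quantified by high-content imaging.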

[3] = cell binding assay, cell line not given
[4] = cell line of CBA not given (LK35.2-hPD-L1 or 293T-hPD-L1)

Row | Structure (SMILES) | IC50 [1] | IC50 [2, 3] | IC50 [2, 4]
1 | CCCC[C@H]1C(=O)N(C)CC(=O)N[C@@H](CC(=O)O)C(=O)N[C@@H](C(C)C)C(=O)N(C)[C@@H](Cc2ccccc2)C(=O)N[C@@H](Cc2c[nH]c3ccc(Cl)cc23)C(=O)N(C)CC(=O)N[C@@H](Cc2c[nH]c3ccccc23)C(=O)N[C@@H](Cc2ccc(O)cc2)C(=O)N[C@@H](CC(C)C)C(=O)N[C@H](C(=O)NCC(N)=O)CSCC(=O)N[C@@H](Cc2ccccc2)C(=O)N(C)[C@@H](Cc2ccccc2)C(=O)N1C [Example 3109] ({CH2CO}-F[NMeF][NMeNle][Sar]DV[NMeF][Trp(5-Cl)][Sar]WYLCG-NH2; thioether N-13) | > 30.5 nM | – | 4.78 to 72.9 nM
2 | CCCC[C@H]1C(=O)N(C)[C@@H](CCCC)C(=O)N[C@@H](CC(C)C)C(=O)N[C@H](C(=O)NCC(N)=O)CSCC(=O)N[C@@H](Cc2ccc(O)cc2)C(=O)N(C)[C@@H](C)C(=O)N[C@@H](CC(N)=O)C(=O)N2CCC[C@H]2C(=O)N[C@@H](CO)C(=O)N[C@@H](CCC(N)=O)C(=O)N2C[C@H](O)C[C@H]2C(=O)N[C@@H](Cc2c[nH]c3ccccc23)C(=O)N[C@@H](CO)C(=O)N[C@@H](Cc2c[nH]c3ccccc23)C(=O)N1C [Example 5115] ({CH2CO}-Y[NMeA]NPSQ[Hyp]WSW[NMeNle][NMeNle]LCG-NH2; thioether N-14) | 0.385 to 6.74 nM | 0.158 to 4.71 nM | –
3 | CCCC[C@H]1C(=O)N[C@H](CC(=O)O)C(=O)N[C@@H](CC(=O)O)C(=O)N[C@@H](C(C)C)C(=O)N(C)[C@@H](Cc2ccccc2)C(=O)N[C@@H](Cc2ccc(O)cc2)C(=O)N(C)CC(=O)N[C@@H](Cc2c[nH]c3ccccc23)C(=O)N[C@@H](Cc2ccc(O)cc2)C(=O)N[C@@H](CC(C)C)C(=O)N[C@H](C(=O)NCC(N)=O)CSCC(=O)N[C@@H](Cc2ccccc2)C(=O)N(C)[C@@H](Cc2ccccc2)C(=O)N1C [Example 3552] (HELM PEPTIDE1{[O=C(C[*:3])[*:2]].F.[meF].[CCCC[C@@H](C(=O)[*:2])N(C)[*:1]].[dD].D.V.[meF].Y.[Sar].W.Y.L.C.G.[am]}$PEPTIDE1,PEPTIDE1,1:R3-14:R3$$$V2.0) | 0.385 to 6.74 nM | 4.78 to 72.9 nM | –
4 | CCCC[C@H]1C(=O)N(C)[C@@H](CCCC)C(=O)N[C@@H](CCCNC(=N)N)C(=O)N[C@H](C(=O)NCC(N)=O)CSCC(=O)N[C@@H](Cc2ccc(O)cc2)C(=O)N(C)[C@@H](C)C(=O)N[C@@H](CC(=O)O)C(=O)N2CCC[C@H]2C(=O)N[C@@H](Cc2cnc[nH]2)C(=O)N[C@@H](CC(C)C)C(=O)N2CCC[C@H]2C(=O)N[C@@H](Cc2c[nH]c3ccccc23)C(=O)N[C@@H](CO)C(=O)N[C@@H](Cc2c[nH]c3ccccc23)C(=O)N1C [Example 1122] ({CH2CO}-Y[NMeA]DPHLPWSW[NMeNle][NMeNle]RCG-NH2; thioether N-14) | 6.76 to 30.3 nM | – | 0.158 to 4.71 nM
5 | CCCC[C@H]1C(=O)N(C)[C@@H](CCCC)C(=O)N[C@@H](CCCN)C(=O)N[C@H](C(=O)NCC(N)=O)CSCC(=O)N[C@@H](Cc2ccc(O)cc2)C(=O)N2CC[C@H]2C(=O)N[C@@H](CC(N)=O)C(=O)N2CCC[C@H]2C(=O)N[C@@H](Cc2cnc[nH]2)C(=O)N[C@@H](CC(C)C)C(=O)N2C[C@H](O)C[C@H]2C(=O)N[C@@H](Cc2c[nH]c3ccccc23)C(=O)N[C@@H](CO)C(=O)N[C@@H](Cc2c[nH]c3ccccc23)C(=O)N1C [Example 1176] | 6.76 to 30.3 nM | – | 4.78 to 72.9 nM
6 | CCCC[C@H]1C(=O)N(C)[C@@H](CCCC)C(=O)N[C@@H](CCN)C(=O)N[C@H](C(=O)NCC(N)=O)CSCC(=O)N[C@@H](Cc2ccc(O)cc2)C(=O)N(C)[C@@H](C)C(=O)N[C@@H](CC(N)=O)C(=O)N2CCC[C@H]2C(=O)N[C@@H](Cc2cnc[nH]2)C(=O)N[C@@H](CC(C)C)C(=O)N2C[C@H](O)C[C@H]2C(=O)N[C@@H](Cc2c[nH]c3ccccc23)C(=O)N[C@@H](CCN)C(=O)N[C@@H](Cc2c[nH]c3ccccc23)C(=O)N1C [Example 5032] ({CH2CO}-Y[NMeA]NPHL[Hyp]W[Dab]W[NMeNle][NMeNle][Dab]CG-NH2; thioether N-14) | 0.385 to 6.74 nM | 0.158 to 4.71 nM | –
7 | CCCC[C@H]1C(=O)N[C@@H](CCCNC(=N)N)C(=O)NC(C(=O)NCC(N)=O)CSCC(=O)N[C@@H](Cc2ccc(O)cc2)C(=O)N(C)[C@@H](C)C(=O)N[C@@H](CC(N)=O)C(=O)N2CCC[C@H]2C(=O)N[C@@H](Cc2cnc[nH]2)C(=O)N[C@@H](CC(C)C)C(=O)N2C[C@H](O)C[C@H]2C(=O)N[C@@H](Cc2c[nH]c3ccccc23)C(=O)N[C@@H](CO)C(=O)N[C@@H](Cc2csc3ccccc23)C(=O)N(C)[C@@H](COCC)C(=O)N1C (stereo partly shown) [Example 9045] ({CH2CO}-Y[NMeA]NPHL[Hyp]WS[Bta][NMeS](Et)[NMeNle]R[ξC]G-NH2; thioether N-14) | 0.385 to 6.74 nM | 0.158 to 4.71 nM | –
8 | CCCC[C@H]1C(=O)N(C)[C@@H](CCCC)C(=O)N[C@@H](CCCNC(=N)N)C(=O)NC(C(=O)NCC(N)=O)CSCC(=O)N[C@@H](Cc2ccc(O)cc2)C(=O)N(C)[C@@H](C)C(=O)N[C@@H](CC(N)=O)C(=O)N2C[C@H](O)C[C@H]2C(=O)N[C@@H](Cc2cnc[nH]2)C(=O)N[C@@H](CC(C)C)C(=O)N2C[C@H](O)C[C@H]2C(=O)N[C@@H](Cc2c[nH]c3ccccc23)C(=O)N[C@@H](CO)C(=O)N[C@@H](Cc2csc3ccccc23)C(=O)N1C (stereo partly shown) [Example 9012] ({CH2CO}-Y[NMeA]N[Hyp]HL[Hyp]WS[Bta][NMeNle][NMeNle]R[ξC]G-NH2; thioether N-14) | 6.76 to 30.3 nM | 0.158 to 4.71 nM | –
9 | CCCC[C@H]1C(=O)N(C)[C@@H](CCCC)C(=O)N[C@@H](CCCNC(=N)N)C(=O)N[C@H](C(=O)NCC(N)=O)CSCC(=O)N[C@@H](Cc2ccccc2)C(=O)N(C)[C@@H](C)C(=O)N[C@@H](CC(N)=O)C(=O)N2CCC[C@H]2C(=O)N[C@@H](Cc2cnc[nH]2)C(=O)N[C@@H](CC(C)C)C(=O)N2C[C@H](F)C[C@H]2C(=O)N[C@@H](Cc2c[nH]c3ccccc23)C(=O)N[C@@H](CO)C(=O)N[C@@H](Cc2c[nH]c3ccccc23)C(=O)N1C [Example 5033] ({CH2CO}-F[NMeA]NPHL[Pro(trans-4-F)]WSW[NMeNle][NMeNle]RCG-NH2; thioether N-14) | 6.76 to 30.3 nM | 4.78 to 72.9 nM | –

Second part, the compound after the results:

Row | IC50 [1] | IC50 [2, 3] | IC50 [2, 4] | Structure (SMILES)
10 | 6.76 to 30.3 nM | 4.78 to 72.9 nM | – | CCCC[C@H]1C(=O)N(C)[C@@H](CCCC)C(=O)N[C@@H](CCCNC(=N)N)C(=O)N[C@H](C(=O)NCC(N)=O)CSCC(=O)N[C@@H](Cc2ccc(O)cc2)C(=O)N(C)[C@@H](C)C(=O)N[C@@H](CCN)C(=O)N2CCC[C@H]2C(=O)N[C@@H](Cc2c[nH]cn2)C(=O)N[C@@H](CCC(N)=O)C(=O)N2C[C@H](O)C[C@H]2C(=O)N[C@@H](Cc2c[nH]c3ccccc23)C(=O)N[C@@H](CO)C(=O)N[C@@H](Cc2c[nH]c3ccccc23)C(=O)N1C [Example 5092] ({CH2CO}-Y[NMeA][Dab]PHQ[Hyp]WSW[NMeNle][NMeNle]RCG-NH2; thioether N-14)
11 | 6.76 to 30.3 nM | 4.78 to 72.9 nM | – | CCCC[C@H]1C(=O)N(C)[C@@H](CCCC)C(=O)NCC(=O)N[C@H](C(=O)NCC(N)=O)CSCC(=O)N[C@@H](Cc2ccccc2)C(=O)N(C)[C@@H](C)C(=O)N[C@@H](CC(N)=O)C(=O)N2CCC[C@H]2C(=O)N[C@@H](Cc2cnc[nH]2)C(=O)N[C@@H](CC(C)C)C(=O)N(C)CC(=O)N[C@@H](Cc2c[nH]c3ccccc23)C(=O)N[C@@H](CO)C(=O)N[C@@H](Cc2c[nH]c3ccccc23)C(=O)N1C [Example 5015] ({CH2CO}-F[NMeA]NPHL[Sar]WSW[NMeNle][NMeNle]GCG-NH2; thioether N-14)
12 | > 30.5 nM | – | > 74.3 nM | CCCC[C@H]1C(=O)N[C@@H](CCCNC(=N)N)C(=O)N[C@H](C(=O)NCC(N)=O)CSCC(=O)N[C@@H](Cc2ccccc2)C(=O)N(C)[C@@H](C)C(=O)N[C@@H](CC(N)=O)C(=O)N2CCC[C@H]2C(=O)N[C@@H](Cc2cnc[nH]2)C(=O)N[C@@H](CC(C)C)C(=O)N(C)CC(=O)N[C@@H](Cc2c[nH]c3ccccc23)C(=O)N[C@@H](CO)C(=O)N(C)[C@@H](Cc2c[nH]c3ccccc23)C(=O)N(C)[C@@H](CCCC)C(=O)N1C [Example 1031] ({CH2CO}-F[NMeA]NPHL[Sar]WS[NMeW][NMeNle][NMeNle]RCG-NH2; thioether N-14)
13 | 0.385 to 6.74 nM | 4.78 to 72.9 nM | – | CCCC[C@H]1C(=O)N[C@@H](C)C(=O)NC(C(=O)NCC(N)=O)CSCC(=O)N[C@@H](Cc2ccc(O)cc2)C(=O)N(C)[C@@H](C)C(=O)N[C@@H](CC(N)=O)C(=O)N2CCC[C@H]2C(=O)N[C@@H](CN)C(=O)N[C@@H](CC(C)C)C(=O)N2C[C@H](O)C[C@H]2C(=O)N[C@@H](Cc2c[nH]c3ccccc23)C(=O)N[C@@H](CO)C(=O)N[C@@H](Cc2c[nH]c3ccccc23)C(=O)N(C)[C@@H](CCSC)C(=O)N1C (stereo partly shown) [Example 9095]
14 | 0.385 to 6.74 nM | 0.158 to 4.71 nM | – | CCCC[C@H]1C(=O)N(C)[C@@H](CCCC)C(=O)N[C@@H](CCN)C(=O)N[C@H](C(=O)NCC(N)=O)CSCC(=O)N[C@@H](Cc2ccc(O)cc2)C(=O)N(C)[C@@H](C)C(=O)N[C@@H](CC(N)=O)C(=O)N2CCC[C@H]2C(=O)N[C@@H](Cc2c[nH]cn2)C(=O)N[C@@H](CCC(=O)O)C(=O)N2C[C@H](F)C[C@H]2C(=O)N[C@@H](Cc2c[nH]c3ccccc23)C(=O)N[C@@H](CCN)C(=O)N[C@@H](Cc2c[nH]c3ccccc23)C(=O)N1C [Example 13001] ({CH2CO}-Y[NMeA]NPHE[Pro(trans-4-F)]W[Dab]W[NMeNle][NMeNle][Dab]CG-NH2; thioether N-14)
